Data taken from patent US20240254138A1, “TRICYCLIC PYRIMIDINES AS CYCLIN-DEPENDENT KINASE 7 (CDK7) INHIBITORS” (JANSSEN PHARMACEUTICA NV, priority 2021, published 2024).
Read-outs that look alike come from different tables or passages of the source.

How the values were obtained:
[1] = test system: RNA Polymerase II Serine 5 phosphorylation (Rpb1 CTD, downstream substrate of CDK7) in A549 cells; assay: Imaging-based cellular RNA PolII Ser5 phosphorylation assay in A549 cells; assay type: cell-based, human; conditions: Homo sapiens, A549, A549 cells, wild-type CDK7; RNA PolII Ser5 phosphorylation; averaged over all measurements; read-out: CDK7_A549 Wild-type CDK7 (pIC50) (converted)
Excerpt: (§1) To evaluate inhibition of CDK7 kinase activity, a 384-well automated imaging assay was used. This assay detects Serine 5 phosphorylation on a unique heptapeptide sequence in the C-terminal domain of Rpb1 subunit of RNA polymerase II, the downstream substrate of CDK7. This heptapeptide sequence is repeated up to 52 times in the CTD of Rpb1.
(§2) A549 adenocarcinoma human alveolar basal epithelial cells (ATCC, CCL-185), rabbit Phospho-Rpb1 CTD (Ser5) antibody (D9N51 (Cell Signaling Technology)), DMEM (Sigma), Fetal Bovine Serum (Biowest), L-glutamine (Sigma), Penicillin/Streptomycin (Life Technologies), Sodium Pyruvate (Sigma), Hepes (Sigma), poly-D-lysine coated μclear 384 black plates (Greiner), formaldehyde (PolySciences), D-PBS (Sigma), Methanol (Sigma), Alexa Fluor 488 goat anti rabbit IgG secondary antibody (Life Technologies), HCS CellMask™ Deep Red stain (Life Technologies), Hoechst 33258 (Invitrogen).
(§3) RNA Polymerase II Serine 5 phosphorylation was detected using a specific rabbit Phospho-Rpb1 CTD (Ser5) antibody. A549 adenocarcinoma human alveolar basal epithelial cells were seeded in 20 μl medium (DMEM supplemented with 1% Fetal Bovine Serum (heat inactivated 30′ 56° C.), 2 mM L-glutamine, 50 U/ml penicillin 50 μg/ml streptomycin, 1 mM sodium pyruvate and 50 mM hepes) at 1000 cells/well and cultured in poly-D-lysine coated μclear 384 black plates for 20 hours at 37° C. and 5% CO2.
(§4) After incubation cells were challenged with compound for 3 hours at 37° C. and 5% CO2. DMSO was used as high control and as low control 10 μM of the following reference compound was used:
(§5) 40 nl of test compounds and controls were spotted in cell plates using Echo Liquid Handler (Echo 550, Labcyte). Incubation was followed by 20 minutes fixation with 20 μl 10% formaldehyde at room temperature. Medium/formaldehyde solution was removed, plates were washed 3 times with 30 μl D-PBS (w/o Ca^2+ and Ma^2+) and permeabilization was done by adding 20 μl ice cold methanol for 20 minutes. Cells were washed again 3 times with 30 μl D-PBS and 20 μl blocking buffer (25 ml fetal bovine serum in 500 ml D-PBS) was added for 1 hour.
(§6) After removing blocking buffer 20 μl 1/1000 primary antibody rabbit Phospho-Rpb1 CTD (Ser5) antibody was added which binds to the phosphorylated Serine5 of the heptapeptide sequences in the CTD of Rpb1. Primary antibody was removed, and plates were washed 3 times with 30 μl D-PBS followed by addition of 20 μl 1/2000 Alexa Fluor 488 goat anti rabbit IgG secondary antibody for final detection of Phospho-Rpb1 CTD (Ser5) together with 1/5000 HCS CellMask™ Deep Red stain for membrane staining and 1/5000 Hoechst 33258 for nucleus staining. Last, plates were washed 2 times with 30 μl D-PBS and wells were filled with 40 μL D-PBS, plates were sealed (Thermowell sealing tape) and stored at 4° C. until reading. Plates were read with Opera Phenix (Perkin Elmer) with 10× air objective. Data were calculated and analyzed in Phaedra.
(§7) IC50 values were calculated using the following formula: […]
(§8) Average value of all HC's and all LC's are used for normalizations.
(§9) A best-fit curve is fitted by a minimum sum of squares method to the plot of % Control vs. compound concentration. From this an IC50 value can be obtained. An estimate of the slope of the plot in terms of the Hill coefficient is also obtained.

[2] = test system: RNA Polymerase II Serine 5 phosphorylation in A549 cells overexpressing CDK7-mutant (C312S); assay: Imaging-based cellular RNA PolII Ser5 phosphorylation assay in A549 cells overexpressing CDK7-mutant (C312S); assay type: cell-based, human; conditions: RNA PolII Ser5 phosphorylation, averaged over all measurements; for IC50: Homo sapiens, A549, A549 cells overexpressing CDK7-mutant (C312S), read-out: CDK7_A549 mutant hCDK7(pIC50) (converted)
Excerpt: as §1, §2, §3, §4, §5, §6, §7, §8, §9
In parallel this assay was performed in A549 cells overexpressing CDK7-mutant (C312S) to evaluate the effect of the covalent bond on potency and to screen for potential off-target effects. Mutation of Cysteine to Serine (C312S), a less nucleophilic amino acid, prevents CDK7 inhibitors from covalently binding to CDK7 and from inhibiting CDK7 activity in an irreversible manner. A stably transduced A549 cell pool was generated that overexpresses CDK7 mutant (C312S), but also expresses endogenous CDK7-WT. Covalent binders targeting the cysteine at position 312 will show a shift in potency in A549 cells overexpressing mutant C312S CDK7.

[3] = molecular target: CDK7/cyclinH/MAT1 trimeric complex (Homo sapiens, UniProt P50613); assay: In vitro CDK7 assay, potency of irreversible covalent inhibitors (kinact/KI), coupled PK/LDH ADP readout at 340 nm
[4] = CDK7 (20 nM enz.) (KI, μM), 20 nM enzyme
[5] = read-out: CDK7 (20 nM enz.) (kinact, s^−1), 20 nM enzyme
[6] = read-out: CDK7 (20 nM enz.) (kinact/KI, M^−1*s^−1), 20 nM enzyme
[7] = read-out: CDK7 (20 nM enz.) (kobs/[I], M^−1*s^−1), 20 nM enzyme

CDK7/cyclinH/MAT1 trimeric complex, sequence (P50613 whole entry): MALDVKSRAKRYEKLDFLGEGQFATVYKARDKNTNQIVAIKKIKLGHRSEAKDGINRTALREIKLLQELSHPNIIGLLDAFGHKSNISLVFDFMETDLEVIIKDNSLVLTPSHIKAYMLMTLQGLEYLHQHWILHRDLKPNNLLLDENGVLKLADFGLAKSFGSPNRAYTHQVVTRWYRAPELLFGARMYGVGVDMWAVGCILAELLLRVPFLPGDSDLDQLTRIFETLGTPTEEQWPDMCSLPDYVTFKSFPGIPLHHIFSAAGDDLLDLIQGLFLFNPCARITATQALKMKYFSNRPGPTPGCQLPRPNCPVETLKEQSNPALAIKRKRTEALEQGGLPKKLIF
CDK7/cyclinH/MAT1 trimeric complex, sequence (P51946 whole entry partner): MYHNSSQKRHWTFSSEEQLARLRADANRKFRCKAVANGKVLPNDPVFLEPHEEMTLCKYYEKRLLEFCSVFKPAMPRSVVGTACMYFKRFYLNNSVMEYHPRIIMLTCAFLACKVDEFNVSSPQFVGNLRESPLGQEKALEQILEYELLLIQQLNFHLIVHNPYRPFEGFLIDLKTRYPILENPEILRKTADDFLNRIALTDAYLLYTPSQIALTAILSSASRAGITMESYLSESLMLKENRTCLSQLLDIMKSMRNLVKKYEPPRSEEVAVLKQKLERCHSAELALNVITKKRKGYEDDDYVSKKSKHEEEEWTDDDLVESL
CDK7/cyclinH/MAT1 trimeric complex, sequence (P51948 whole entry partner): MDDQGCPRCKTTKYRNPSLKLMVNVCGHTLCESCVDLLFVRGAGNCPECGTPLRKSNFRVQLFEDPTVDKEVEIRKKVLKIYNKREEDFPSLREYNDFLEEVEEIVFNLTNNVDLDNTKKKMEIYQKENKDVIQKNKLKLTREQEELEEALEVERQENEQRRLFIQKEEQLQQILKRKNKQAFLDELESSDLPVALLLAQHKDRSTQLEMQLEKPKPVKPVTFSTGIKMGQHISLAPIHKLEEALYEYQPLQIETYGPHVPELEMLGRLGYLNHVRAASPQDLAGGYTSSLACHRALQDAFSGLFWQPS

Compound | IC50 [1] [nM] | IC50 [2] [nM] | Ki [3, 4] [µM] | kinact [3, 5] [s⁻¹] | kinact/KI [3, 6] [M⁻¹ s⁻¹] | other results
C=CC(=O)N1CC(N2CCN(C)[C@H](c3ccc4c(c3)Nc3nccc(N5CCOCC5)c3CO4)C2)C1 (single isomer, unassigned) [Compound 142] | 1450 | > 10000 | – | – | – | –
C=CC(=O)N1CC(N2CCN(C)[C@@H](c3ccc4c(c3)Nc3nccc(N5CCOCC5)c3CO4)C2)C1 (single isomer, unassigned) [Compound 144] | > 10000 | > 10000 | – | – | – | –
C#CCCN(C)C/C=C/C(=O)N1CC(N2CCC(c3ccc4c(c3)Nc3nccc(C5CCOCC5)c3[C@@H](C)O4)CC2)C1 (single isomer, unassigned) [Compound 186] | 100 | > 10000 | – | – | – | –
C#CCCN(C)C/C=C/C(=O)N1CC(N2CCC(c3ccc4c(c3)Nc3nccc(C5CCOCC5)c3[C@H](C)O4)CC2)C1 (single isomer, unassigned) [Compound 187] | 4070 | > 10000 | – | – | – | –
C#CCCN(C)C/C=C/C(=O)N1CC(N2CCC(c3ccc4c(c3)Nc3nccc(N5CCOCC5)c3[C@H](C)O4)CC2)C1 (single isomer, unassigned) [Compound 195] | 129 | > 10000 | – | – | – | –
C#Cc1cc2c(cc1C1CCN(C3CN(C(=O)C=C)C3)CC1)Nc1nccc(N3CCOCC3)c1[C@H](C)O2 (single isomer, unassigned) [Compound 209] | 100 | > 10000 | – | – | – | –
C#Cc1cc2c(cc1C1CCN(C3CN(C(=O)C=C)C3)CC1)Nc1nccc(N3CCOCC3)c1[C@@H](C)O2 (single isomer, unassigned) [Compound 210] | 8510 | > 10000 | – | – | – | –
C#Cc1cc2c(cc1C1CCN(C3CN(C(=O)C=C)C3)CC1)Nc1nccc(N3CCOCC3)c1[C@H](C)O2 (single isomer, unassigned) [Compound 214] | – | – | – | – | – | CDK7_A549 mutant hCDK7(pIC50) ([2]; A549 cells overexpressing CDK7-mutant (C312S)): <5; kinact/KI [3, 7]: 417 M⁻¹ s⁻¹
C=CC(=O)N1CC(N2CCC(c3ccc4c(c3)Nc3nccc(N5CCOCC5)c3[C@@H](C)O4)CC2)C1 (single isomer, unassigned) [compound 90] | – | – | – | – | – | kinact/KI [3, 7]: 1190 M⁻¹ s⁻¹
C=CC(=O)N1CC(N2CC(c3cc4c(cn3)O[C@@H](C)c3c(-c5cnn(C)c5)ccnc3N4)C2)C1 (single isomer, unassigned) [compound 300] | – | – | 2.63 | 3.59e-05 | 13.7 | –
C=CC(=O)N1CC[C@@H](N2CC(c3cc4c(c(C)n3)O[C@@H](C)c3c(-c5cnn(C)c5)ccnc3N4)C2)C1 (single isomer, unassigned) [compound 420] | – | – | 7.92 | 4.55e-05 | 5.74 | –
CC#CC(=O)N1CC(N2CC(c3cc4c(c(C)n3)O[C@H](C)c3c(N5CCOCC5)ccnc3N4)C2)C1 (single isomer, unassigned) [compound 444] | – | – | 0.186 | – | – | CDK7 (20 nM enz.) (kinact, s^−1) ([3]; 20 nM enzyme): 4.506e-05 s⁻¹; CDK7 (20 nM enz.) (kinact/KI, M^−1*s^−1) ([3]; 20 nM enzyme): 242.644 M⁻¹ s⁻¹
C=CC(=O)N1CC(N2CCC(c3ccc4c(c3)Nc3nccc(N5CCOCC5)c3CO4)C(C)(C)C2)C1 (stereo not drawn) [Compound 41] | – | – | – | – | – | Ki ([3]; CDK7 (KI(μM)), […], 1 mM ATP, room temperature, averaged values over all measurements): 0.083 µM; kinact ([3]; read-out: CDK7 (kinact, s^−1), kinact = maximal rate of inactivation, 1 mM ATP, room temperature, averaged values over all measurements): 8.37e-05 s⁻¹; kinact/KI ([3]; read-out: CDK7 (kinact/KI, M^−1*s^−1), potency of irreversible covalent inhibitors, 1 mM ATP, room temperature, averaged values over all measurements): 1010 M⁻¹ s⁻¹
C=CC(=O)N1CC(N2CCC(c3cc(C)c4c(c3)Nc3nccc(N5CCS(=O)(=O)CC5)c3CO4)CC2)C1 [Compound 75] | – | – | – | – | – | kinact/KI [3, 7]: 1100 M⁻¹ s⁻¹
C#CCCN(C)C/C=C/C(=O)N1CC(N2CCC(c3cc(Cl)c4c(c3)Nc3nccc(C5CCOCC5)c3CO4)CC2)C1 [compound 249] | – | – | – | – | – | kinact/KI [3, 7]: 1040 M⁻¹ s⁻¹

Second part, led by results:

IC50 [1] [nM] | IC50 [2] [nM] | Ki [3, 4] [µM] | kinact [3, 5] [s⁻¹] | kinact/KI [3, 6] [M⁻¹ s⁻¹] | Compound | other results
> 10000 | > 10000 | – | – | – | C=CC(=O)N1CCC(N2CC[C@H](O)[C@@H](c3ccc4c(c3)OCc3c(N5CCOCC5)ccnc3N4)C2)CC1 (mixture of isomers) [Compound 157] | –
– | – | 1.4 | 5.53e-05 | 39.4 | C=CC(=O)N1CC(N2CCC(c3cc4c(cn3)O[C@@H](C)c3c(N5CCOCC5)ccnc3N4)CC2)C1 (single isomer, unassigned) [Compound 172] | –
38 | > 10000 | – | – | – | C=CC(=O)N1CC[C@@H](N2CCC(c3cc4c(c(C)n3)OCc3c(-c5cnn(C)c5)ccnc3N4)CC2)C1 (single isomer, unassigned) [Compound 182] | –
81.3 | > 10000 | – | – | – | C=CC(=O)N1CC[C@H](N2CCC(c3cc4c(c(C)n3)OCc3c(-c5cnn(C)c5)ccnc3N4)CC2)C1 (single isomer, unassigned) [Compound 185] | –
3160 | > 10000 | – | – | – | C=CC(=O)N1CC(N2CC(c3cc4c(c(C)n3)O[C@@H](C)c3c(N5CCOCC5)ccnc3N4)C2)C1 (single isomer, unassigned) [Compound 271] | –
– | – | 0.0278 | 5.15e-05 | 1850 | C=CC(=O)N1CC(N2CCC(c3cc4c(cn3)O[C@H](C)c3c(N5CCOCC5)ccnc3N4)CC2)C1 (single isomer, unassigned) [compound 171] | –
– | – | 0.0606 | 5.08e-05 | 839 | C=CC(=O)N1CC[C@@H](N2CC(c3cc4c(c(C)n3)OCc3c(N5CCOCC5)ccnc3N4)C2)C1 (single isomer, unassigned) [compound 179] | –
– | – | 0.0452 | 5.34e-05 | 1180 | C=CC(=O)N1CC[C@H](N2CC(c3cc4c(c(C)n3)OCc3c(N5CCOCC5)ccnc3N4)C2)C1 (single isomer, unassigned) [compound 180] | –
– | – | 0.0672 | 9.76e-05 | 1450 | C=CC(=O)N1CC(N2CCC(c3cc4c(c(C)n3)O[C@H](C)c3c(C5CCOCC5)ccnc3N4)CC2)C1 (single isomer, unassigned) [compound 429] | –
– | – | 0.168 | 4.84e-05 | 287 | C=CC(=O)N1CC(N2CCC(c3cc4c(c(C)n3)OCc3c(C5CCOCC5)ccnc3N4)CC2)C1 [compound 208] | –
– | – | 0.156 | 4.48e-05 | 287 | C=CC(=O)N1CC(c2nc(C)c(-c3cc4c(c(C)n3)OCc3c(N5CCOCC5)ccnc3N4)c(C)n2)C1 [compound 277] | –
– | – | 0.0237 | 5.03e-05 | 2120 | C=CC(=O)N1CCC(N2CCC(c3cc4c(c(C)n3)OCc3c(N5CCOCC5)ccnc3N4)CC2)CC1 [compound 324] | –
– | – | 0.204 | 6.25e-05 | 306 | C=CC(=O)N1CC(N2CC(c3cc4c(c(P(C)(C)=O)n3)OCc3c(N5CCOCC5)ccnc3N4)C2)C1 [compound 331] | –
– | – | 0.273 | 3.95e-05 | 144 | C=CC(=O)N1CCC(n2ccc(-c3cc4c(c(C)n3)OCc3c(N5CCOCC5)ccnc3N4)cc2=O)CC1 [compound 419] | –
